The values that follow come from PMC6259618 (Molecules, 2011).

Read-outs that look alike come from different tables or passages of the source. Where a SMILES comes first, the peptide text is derived from it. Where no end group is shown, it is not given here. The star is where a group is joined. DOTA = O=C(O)CN1CCN(CC(=O)O)CCN(CC(=O)*)CCN(CC(=O)O)CC1

Series [1] concerns human prostate carcinoma PC-3 cells. The settings on record: for Incubation time to maximal radioligand binding / binding saturation: ^111In- or ^125I-labeled peptide, medium without FCS, gamma-counter; for Binding as % of the native molecule (DUP-1) capacity: ^125I-labeled.
Protocol: Direct radiolabeling with ^125I was performed on the tyrosine moiety using the chloramine-T method. A 10^−3 M aqueous solution of the respective peptide (5–25 µL, 5–25 nmol) was added to 0.25 M phosphate buffer (25 µL, pH 7.5). A radioactivity amount of 1–10 MBq ^125I- or ^131I- was added to this mixture and vortexed for 30 sec. The labeling reaction was quenched by adding 10 µL of a saturated aqueous methionine solution. The radiolabeled peptide was purified by HPLC on a Lichrosorb RP-select B 5 µm, 250 × 4 mm column using a linear solvent gradient system.
Radiolabeling was performed by complexation with ^111In-chloride. One microliter of a 10^−3 M solution of DOTA-Lys-DUP-1 in 50% dimethyl sulfoxide in water was mixed with sodium acetate buffer (25 µL, pH 5), and 10 MBq ^111InCl3 (PerkinElmer, Rodgau) was added. The solution was heated at 95 °C for 25 min. Quality control was performed by HPLC showing a radiochemical purity >95%.
For series [2] the following is noted: native DUP-1, not among the peptides tested here; earlier work; cited from earlier work.
The test system of series [3] is human prostate carcinoma PC-3 cells. More on the design: method as in PMID 15671538. As to conditions: ^125I-DUP-1, 'has been shown to be'; earlier work; cited from earlier work.
Series [4] concerns PC-3 tumors. The settings on record: cited from earlier work; for Tumor binding: iodinated native ligand. The procedure:
A linear peptide with affinity for prostate carcinoma was identified in our group using phage display techniques. The peptide, […], was isolated on prostate-specific membrane antigen-negative cells and evaluated both in vitro and in vivo. Chemical synthesized […] was tested for binding affinity, specificity, kinetics and internalization. In vivo tumor accumulation and organ distribution was evaluated in a nude mouse model, carrying subcutaneously human prostate carcinoma cells. […] A possible explanation for the rapid clearance is the higher polarity of the DOTA conjugate.

For series [5], the system named is PC-3 tumors. Put plainly: in vivo. As to conditions: mouse. On the procedure:
(§1) Male 6-week-old BALB/c nu/nu mice were obtained from Charles River WIGA (Sulzfeld, Germany) and housed in VentiRacks. For inoculation of the tumors, a Matrigel matrix/cell (5 × 10^6 cells) suspension was injected subcutaneously into the flank of the animals. Tumors were grown up to a size of ~1.0 cm^3. ^111In-labeled or ^131I-labeled peptide was injected via the tail vein into the animals, carrying PC-3 prostate tumors. At defined time points post injection, the mice were sacrificed. Tumor, blood and selected tissues (heart, lung, spleen, liver, kidney, muscle, intestinum and brain) were removed, drained of blood, weighed, and the radioactivity was measured with a γ-counter (LB 951G, Berthold Technologies). The percentage injected dose per gram of tissue (%ID/g) was calculated. All animal experiments were carried out in conformity with the German law for protection of animals and are in compliance with European laws.

Series [6] concerns human prostate carcinoma PC-3 cells. Type of series: binding. As to conditions: for Binding inhibition by unlabeled DUP-1: ^125I-labeled ligand on PC-3 cells, competitor unlabeled DUP-1 at 10^-4 M. The procedure: The human prostate carcinoma cell line PC-3 (American Type Culture Collection, Manassas, VA, USA) was cultivated at 37 °C in a 5% CO2 incubator in RPMI 1640 with Glutamax containing 10% FCS (Invitrogen, Karlsruhe, Germany) and 25 mmol/L HEPES.
200,000 cells were seeded in 6-well plates and cultivated for 24 hours. The medium was replaced by 1 mL fresh medium (without FCS). ^125I-labeled or ^111In-labeled peptide was added to the cell culture (1–2 × 10^6 cpm per well) and incubated for various time periods. Thereafter, the cells were washed thrice with 1 mL phosphate buffer saline (PBS) and subsequently lysed with 0.3 mol/L NaOH (0.5 mL). Radioactivity was measured with a γ-counter and calculated as percentage applied dose per 10^6 cells. For competition experiments co-incubation was performed with the unlabeled peptide at a defined concentration. If BSA or dry milk powder was used as blocking agents, it was added to a final concentration of 1% in medium without FCS.

A further series in a line: in vivo. As to conditions: male, BALB/c nu/nu, mouse, iv, total radioactivity; for tissue to tissue ratio at 0.25 h / tissue to tissue ratio at 1 h: Tumor-to-organ ratio. On the procedure:
as §1

A further series is described as follows: human serum. As to conditions: 37 °C, up to 6 hours.
The mark [7] stands for this setting: ^125I-labeled fragments, PC-3 cells, after binding saturation.
The mark [8] stands for this setting: PC-3 cells, after 10 min incubation.
Setting [9] is: PC-3 cells, after 60 min incubation.

FRPNRAY [DUP-1-6-Y]: the “Binding as % of the leader peptide DUP-1” value in series [1] is “about 82%”.

Regarding “FRPNRAQDYNTN [DUP-1, tested ^125I-/^131I-labeled]”, in series [2], the Serum half life is reported as 2 min. In series [3], the IC50 (in general, the concentration that gives 50% inhibition) is 0.177 µM. Moreover, in series [1] (PC-3 cells), the “Incubation time to maximal radioligand binding / binding saturation” value came out at 5 min. In addition, the “Binding, percentage applied dose per 10^6 cells” value in series [1] (PC-3 cells, radiolabeled peptide, maximal binding) is “about 12 % applied dose per 10^6 cells”. Further, the Tumor binding entry with PC-3 tumors [4] (15 min circulation in mice) is on record as “about 7%”; in the series on PC-3 tumors [4] (45 min circulation in mice), “about 4%”. For the same compound, in the series on PC-3 tumors [4] (iodinated peptide, 15 min), the Kidney radioactivity result is “about 8 % ID/g”. Besides, the “Increase of radioligand-binding in the prostate tumor compared to normal prostate tissue” value in the series with PC-3 tumors [4] (organ distribution, nude mouse model) is “up to 300%”.

In the case of NRAQDY [DUP-4-9], in the series on PC-3 tumors [5], the Activity in kidneys came to 15.48 % ID/g and the Radioactivity in blood entry is recorded as “about 5.5 % ID/g”. Moreover, the IC50 in series [6] (^125I-labeled DUP-4-9 on PC-3 cells, unlabeled peptide as competitor, read-out: IC50) came out at 3.5 µM. In addition, in series [6], the “Binding inhibition by unlabeled DUP-1” value is on record as “about 99%”. Also, in series [1] (PC-3 cells), the “Incubation time to maximal radioligand binding / binding saturation” value is given as 30 min. For the same compound, the “Binding as % of the leader peptide DUP-1” value in series [1] (setting [7]) is “about 70%”.

fRPNRAQDYNTN [dPhe-DUP-1]: the “Binding inhibition by unlabeled DUP-1” value in series [6] is “up to 94%”. In addition, in series [1] (PC-3 cells), the “Incubation time to maximal radioligand binding / binding saturation” value is given as 60 min. In addition, the “In vitro binding capacity relative to DUP-1” value in series [1] (PC-3 cells, summary in discussion, incubation time not printed at place) is on record as “about 25%”. Besides, the “Binding as % of the native molecule (DUP-1) capacity” value in series [1] (setting [8]) is “about 8.5%”; in series [1] (setting [9]), “about 25%”.

For the compound QDYNTN [DUP-7-12], the “Binding as % of the leader peptide DUP-1” value in series [1] (setting [7]) is given as “reduced binding capacity to the background level”.

As to `C[C@H](NC(=O)[C@H](CCCNC(=N)N)NC(=O)[C@H](CC(N)=O)NC(=O)[C@@H]1CCCN1C(=O)[C@H](CCCNC(=N)N)NC(=O)[C@@H](N)Cc1ccccc1)C(=O)N[C@@H](CCC(N)=O)C(=O)N[C@@H](CC(=O)O)C(=O)N[C@@H](Cc1ccc(O)cc1)C(=O)N[C@@H](CC(N)=O)C(=O)N[C@H](C(=O)N[C@@H](CC(N)=O)C(=O)N[C@@H](CCCCNC(=O)CN1CCN(CC(=O)O)CCN(CC(=O)O)CCN(CC(=O)O)CC1)C(N)=O)[C@@H](C)O` (111In complex, metal not drawn) [DOTA-Lys-DUP-1] (H-FRPNRAQDYNTNK(DOTA)-NH2), the tissue uptake (in general, the percentage of the injected dose found per gram of tissue) at 0.25 h in “in vivo” worked out at 2.1 %ID/g. In addition, in “in vivo”, the tissue uptake at 1 h came out at 0.14 %ID/g. In addition, the tissue to tissue ratio at 0.25 h was 0.79 ± 0.198 in “in vivo” (Blood); 18.6 ± 4.05 in the series “in vivo” (Brain); 1.99 ± 0.459 in the series “in vivo” (Heart); 2.46 ± 0.391 in “in vivo” (Intestine); 0.124 ± 0.028 in the series “in vivo” (Kidney); 2.35 ± 0.196 in “in vivo” (Liver). The tissue to tissue ratio at 0.25 h in “in vivo” (Lung) came out at 0.823 ± 0.167; in “in vivo” (Muscle), 3.39 ± 0.833; in the series “in vivo” (Spleen), 3.02 ± 0.793; in the series “in vivo” (Tumor), 1. Besides, the tissue to tissue ratio at 1 h in the series “in vivo” (Blood) turned out to be 3.45 ± 0.261; in the series “in vivo” (Brain), 14.8 ± 4.73; in the series “in vivo” (Heart), 7.79 ± 0.578; in “in vivo” (Intestine), 4.79 ± 2.13; in “in vivo” (Kidney), 0.063 ± 0.012; in “in vivo” (Liver), 3.81 ± 0.07. Also, the tissue to tissue ratio at 1 h in “in vivo” (Lung) is 2.9 ± 0.142; in “in vivo” (Muscle), 8.05 ± 6.85; in the series “in vivo” (Spleen) it was 5.71 ± 1.09; in “in vivo” (Tumor) it was 1. Also, the IC50 in series [6] (24 h) amounted to 3.3 µM.

For the compound C-FRPNRAQDYNTN-C (disulfide) [cDUPc], in series [6], the “Binding inhibition by unlabeled DUP-1” value is “up to 90%”. For the same compound, the “Incubation time to maximal radioligand binding / binding saturation” value in series [1] (PC-3 cells) is 60 min. Besides, the “Binding as % of the native molecule (DUP-1) capacity” value in series [1] (setting [8]) is “about 7%”; in series [1] (setting [9]), “about 19%”.

Regarding “H-FRPNRAQDYNTNK(DOTA)-NH2 (SMILES C[C@H](NC(=O)[C@H](CCCNC(=N)N)NC(=O)[C@H](CC(N)=O)NC(=O)[C@@H]1CCCN1C(=O)[C@H](CCCNC(=N)N)NC(=O)[C@@H](N)Cc1ccccc1)C(=O)N[C@@H](CCC(N)=O)C(=O)N[C@@H](CC(=O)O)C(=O)N[C@@H](Cc1ccc(O)cc1)C(=O)N[C@@H](CC(N)=O)C(=O)N[C@H](C(=O)N[C@@H](CC(N)=O)C(=O)N[C@@H](CCCCNC(=O)CN1CCN(CC(=O)O)CCN(CC(=O)O)CCN(CC(=O)O)CC1)C(N)=O)[C@@H](C)O)”, the cleaved bond result in “human serum” is “phenylalanine1-R2, first_seen, 5 min”.
